From patent US12194021B2, “Modified herbal compositions for neuromodulation” (University of Southern California, priority 2021, dated 2025) come the findings set out here.

Common to all, as to type: in vivo
One series has as its system gephyrin. Description: Gephyrin level measurement (Western blot, hippocampus and cortex). The conditions noted are these: TG-mice, 1 mg/kg oral daily. On the procedure:
3) Gephyrin level measurement: Gephyrin amounts in control (group housing), AD, and AD+D-P group were determined. All mice brains were taken and prepared for assays. SDS-PAGE and Western blot analysis. Proteins were separated on SDS-polyacrylamide gels (Sigma) using the Bio-Rad Mini-Protean 3 cell system. Proteins were transferred on a polyvinylidene difluoride (PDVF) membrane (Sigma) and blocked with 4% non-fat dry milk. Blots were incubated overnight at 4° C. with rabbit anti-gephyrin (Santa Cruz, 1:200) and mouse anti-β-actin (Sigma, 1:1000), followed by HRP-conjugated secondary antibodies (1:5000) for two hours at room temperature. Bands were detected using ECL detection kit (Sigma) and exposed to X-ray films. Bands were analyzed by densitometry using ImageQuant5.2 (Molecular Dynamics), normalized to the corresponding β-actin signal and compared.
Gephyrin is the key scaffolding protein that organizes the inhibitory postsynaptic receptor density involving GABAAR clustering at postsynaptic sites. Gephyrin not only has a structural function at GABAergic synaptic sites, but also plays a crucial role in synaptic dynamics. Therefore, we examined the protein levels of gephyrin in the hippocampus (left) and cortex (right) in the TG-mice and in D-P treated TG-mice compared to wt control. […]

The next series has as its system TG-mice. Kind of series: Novel context recognition (NCR). The note with it: 1 mg/kg oral, 3 months, untreated TG 49.2±2.6%. On the procedure:
Novel context recognition (NCR): Day 1-3 was Habituation (once/day). Two contexts (containers) A and B with similar field area were very different in shape. Context A was a rectangular, Context B was a circular container. The containers were open at the top with bedding to minimize stress and with video camera on top to record animal behavior. Each animal was placed in Context A without toys for 5 min, then back to home cage for 30 min. Then the animal was placed in Context B without toys for 5 min.
Day 4 was for Familiarization: Two different sets of toys were used as the familiar objects referred to as FO1 and FO2 respectively. […]
Day 5 (24 h from familiarization): Retention Trials was performed to determine the memory retention of each animal for familiarized objects. […] The test was videotaped and analyzed offline. The time spent exploring the familiar object (FO1) and exchanged object (FO2) were calculated where exploration equals touching the object with nose or paws or sniffing within 1.5 cm of the object. […]
Mice were divided into four groups: (1) C57BL/6 wt male mice were treated with oral administration of 2% sucrose; (2) C57B1/6 wt male mice with oral administration of 1 mg/kg D-P in 2% sucrose; (3) TG-mice with oral administration of 2% sucrose; and (4) TG-mice with 1 mg/kg D-P in 2% sucrose. […] Next, we evaluated NCR (FIG. 3C). The RI was calculated.

A short description of series [1]: Six-month long-term toxicity evaluation (metabolic rate). The conditions noted are these: male Sprague Dawley rats, gavage 1, 10 and 500 mg/kg daily, six months. On the procedure:
To evaluate D-P's safety, we tested dosages of 1, 10, and 500 mg/kg (500 time high concentration) of D-P in rats. Sprague Dawley rats, male, body weight starting at 175±5 g, were used in this study. Control group rats were gavaged SUC 20 ml/kg, and D-P group rats were gavaged 1, 10, and 500 mg/kg D-P every day for six months.

As for “piperidin-1-ium (2R,3R)-2-(3,4-dihydroxy-5-oxidophenyl)-3,5-dihydroxy-4-oxochroman-7-olate [D-P]”, the gephyrin levels result is “partly recovered” in the series on gephyrin (1 month) and “restored to control levels” with gephyrin (3 months). Moreover, the “Recognition Index (RI), novel context” value in the series on TG-mice is “reversed the RI in TG-mice”. For the same substance, the metabolic rate entry in series [1] was “did not alter the metabolic rate”.
